Assay results published in PubChem BioAssay (NCI).
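Cultured in 96-well plates, cells were exposed to test compound for 48 hours across five concentrations. The concentration for full growth arrest is given as TGI.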

Legend:
Assay in all cases: NCI-60 cell line screen, 48 h
[1] = tested on: HCT-116 colon
[2] = tested on: LOX IMVI melanoma
[3] = tested on: NCI-H23 lung
[4] = tested on: ACHN renal
[5] = tested on: DU-145 prostate
[6] = tested on: SK-MEL-5 melanoma
[7] = tested on: SNB-19 CNS
[8] = tested on: OVCAR-5 ovarian
[9] = tested on: NCI-H522 lung
[10] = tested on: HT29 colon
[11] = tested on: SK-MEL-28 melanoma
[12] = tested on: MCF7 breast
[13] = tested on: BT-549 breast
[14] = tested on: MALME-3M melanoma
[15] = tested on: RXF 393 renal
[16] = tested on: UACC-62 melanoma
[17] = tested on: SF-539 CNS
[18] = tested on: OVCAR-3 ovarian
[19] = tested on: UO-31 renal
[20] = tested on: KM12 colon
[21] = tested on: NCI-H460 lung
[22] = tested on: TK-10 renal
[23] = tested on: HOP-62 NSCLC
[24] = tested on: T-47D breast
[25] = tested on: SNB-75 CNS
[26] = tested on: HL-60(TB) leukemia
[27] = tested on: M14 melanoma
[28] = tested on: MDA-N
[29] = tested on: HCT-15 colon
[30] = tested on: MDA-MB-435
[31] = tested on: HS 578T breast
[32] = tested on: K-562 leukemia
[33] = tested on: IGROV1 ovarian
[34] = tested on: 786-0 renal
[35] = tested on: MDA-MB-231 breast
[36] = tested on: UACC-257 melanoma
[37] = tested on: SF-295 CNS
[38] = tested on: SN12C renal
[39] = tested on: EKVX NSCLC
[40] = tested on: NCI/ADR-RES ovarian
[41] = tested on: A549 NSCLC
[42] = tested on: PC-3 prostate
[43] = tested on: COLO 205 colon
[44] = tested on: OVCAR-8 ovarian
[45] = tested on: SK-MEL-2 melanoma
[46] = tested on: CCRF-CEM leukemia
[47] = tested on: RPMI-8226 leukemia
[48] = tested on: SF-268 CNS
[49] = tested on: HOP-92 NSCLC
[50] = tested on: OVCAR-4 ovarian
[51] = tested on: SW-620 colon
[52] = tested on: U251 CNS
[53] = tested on: HCC-2998 colon
[54] = tested on: SR leukemia
[55] = tested on: CAKI-1 renal
[56] = tested on: A498 renal
[57] = tested on: SK-OV-3 ovarian
[58] = tested on: MOLT-4 leukemia
[59] = tested on: NCI-H226 lung

In the case of `COc1cc2oc3c(c(=O)c2c(O)c1/C=C/C(C)C)CCC(C)(C)Oc1cc(O)ccc1-3`, the TGI [1] is reported as 65.9 µM, the TGI [2] is reported as greater than 100 µM and the TGI [3] is reported as 30.1 µM. For the same molecule, the TGI [4] was 27.1 µM, the TGI [5] was 97.9 µM and the TGI [6] was 39.9 µM. The TGI [7] was 30.7 µM, the TGI [8] was 30.7 µM and the TGI [9] was 38.1 µM. The TGI [10] was 19.2 µM, the TGI [11] was 40.2 µM and the TGI [12] was 26.7 µM. The TGI [13] was 31.6 µM, the TGI [14] was 41.4 µM and the TGI [15] was 24.4 µM. For the same molecule, the TGI [16] was 30.3 µM, the TGI [17] was 26.2 µM and the TGI [18] was 29 µM. For the same molecule, the TGI [19] was 25.8 µM, the TGI [20] was 21.8 µM and the TGI [21] was 21.3 µM. For the same molecule, the TGI [22] was 28.7 µM, the TGI [23] was 28.9 µM and the TGI [24] was greater than 100 µM. For the same molecule, the TGI [25] was 33.1 µM, the TGI [26] was 45.4 µM and the TGI [27] was 23 µM. It also gave a TGI [28] of 25.6 µM, a TGI [29] of 21.8 µM and a TGI [30] of 39.8 µM. For the same molecule, the TGI [31] was 31.2 µM, the TGI [32] was 13.6 µM and the TGI [33] was 40.6 µM. The TGI [34] was 47.1 µM, the TGI [35] was 32.4 µM and the TGI [36] was 29.2 µM. It also gave a TGI [37] of 27.7 µM, a TGI [38] of 27.4 µM and a TGI [39] of 47.6 µM. The TGI [40] was 39.3 µM, the TGI [41] was 27.1 µM and the TGI [42] was 28.4 µM. It also gave a TGI [43] of 66.9 µM, a TGI [44] of 31.4 µM and a TGI [45] of 30.2 µM. It also gave a TGI [46] of 57.6 µM, a TGI [47] of 45.5 µM and a TGI [48] of 32.2 µM. The TGI [49] was 34.3 µM, the TGI [50] was 28.6 µM and the TGI [51] was 51.8 µM. For the same molecule, the TGI [52] was 66.1 µM, the TGI [53] was 27.5 µM and the TGI [54] was 20 µM. For the same molecule, the TGI [55] was 30.6 µM, the TGI [56] was 42.6 µM and the TGI [57] was 34.8 µM. It also gave a TGI [58] of 35 µM.

`C/C=C/[C@@H]1[C@H]2C(=O)[C@]3(Cl)[C@@H](/C=C/C)[C@@H]3C(=O)[C@@]12Cl` showed a TGI [1] greater than 100 µM, a TGI [2] greater than 100 µM and a TGI [3] greater than 100 µM. The TGI [4] was greater than 100 µM, the TGI [5] was greater than 100 µM and the TGI [6] was greater than 100 µM. It also gave a TGI [7] greater than 100 µM, a TGI [8] greater than 100 µM and a TGI [9] greater than 100 µM. It also gave a TGI [10] greater than 100 µM, a TGI [11] greater than 100 µM and a TGI [12] greater than 100 µM. The TGI [59] was greater than 100 µM, the TGI [13] was greater than 100 µM and the TGI [14] was greater than 100 µM. It also gave a TGI [15] greater than 100 µM, a TGI [16] greater than 100 µM and a TGI [17] greater than 100 µM. For the same molecule, the TGI [18] was greater than 100 µM, the TGI [19] was greater than 100 µM and the TGI [20] was greater than 100 µM. It also gave a TGI [21] greater than 100 µM, a TGI [22] greater than 100 µM and a TGI [23] greater than 100 µM. For the same molecule, the TGI [24] was greater than 100 µM, the TGI [25] was greater than 100 µM and the TGI [26] was greater than 100 µM. For the same molecule, the TGI [27] was greater than 100 µM, the TGI [28] was greater than 100 µM and the TGI [29] was greater than 100 µM. For the same molecule, the TGI [30] was greater than 100 µM, the TGI [31] was greater than 100 µM and the TGI [32] was greater than 100 µM. The TGI [33] was greater than 100 µM, the TGI [34] was greater than 100 µM and the TGI [35] was greater than 100 µM. It also gave a TGI [36] greater than 100 µM, a TGI [37] greater than 100 µM and a TGI [38] greater than 100 µM. For the same molecule, the TGI [39] was greater than 100 µM, the TGI [40] was greater than 100 µM and the TGI [41] was greater than 100 µM. The TGI [42] was greater than 100 µM, the TGI [43] was greater than 100 µM and the TGI [44] was greater than 100 µM. The TGI [45] was greater than 100 µM, the TGI [46] was greater than 100 µM and the TGI [48] was greater than 100 µM. It also gave a TGI [49] greater than 100 µM, a TGI [50] greater than 100 µM and a TGI [51] greater than 100 µM. The TGI [52] was greater than 100 µM, the TGI [53] was greater than 100 µM and the TGI [54] was greater than 100 µM. The TGI [55] was greater than 100 µM, the TGI [56] was greater than 100 µM and the TGI [57] was greater than 100 µM. The TGI [58] was greater than 100 µM.
